Consider two substances from patent US20070197426A1, “Lactoferrin polypeptide, process for producing the same and inflammation inducing substance” (priority 2004, published 2007).

Holding throughout (assay type): cell-based
Common to all, as to conditions: normal human peripheral blood lymphocytes

In one assay the test system is IL-8. Nature of the assay: IL-8 production by human peripheral blood lymphocytes co-cultured with peptide (enzyme antibody method). How it is done: (§1) Lymphocytes were separated from normal human peripheral blood, which was collected by using heparin sodium, by specific gravity centrifugation using Lympholight H (Cedarlane, Canada), and inducing ability for production of various cytokines and chemokines and inducing ability for expression of NFκBp65, a cellular transcription factor, were analyzed using the lymphocytes. Human cytokines (IL-6 and TNFα; Techne Co., USA), chemokines (IL-8 and MCP-1; American Research Product, Inc., USA) and on NFκB (TransAM NFκB family transcription factor assay kit; Active Motif, Co., USA) were measured by enzyme antibody method.

Another assay deals with IL-6. Kind of assay: IL-6 production by human peripheral blood lymphocytes co-cultured with peptide (enzyme antibody method). How it is done:
as §1

Another assay deals with MCP-1. Kind of assay: MCP-1 production by human peripheral blood lymphocytes co-cultured with peptide (enzyme antibody method). How it is done: as §1
The next assay deals with NFκBp65. Nature of the assay: NFκBp65 expression in human peripheral blood lymphocytes (TransAM NFκB family transcription factor assay kit). How it is done: as §1

Regarding FKDCHLA [HuPep1], the “inducing ability for production of IL-8” value in the assay on IL-8 was “confirmed”. Besides, the “production of IL-6, one inflammatory cytokine” value in the assay on IL-6 is given as “could be confirmed”. In the assay with MCP-1, the “inducing ability for production of MCP-1” value is on record as “confirmed”. The “enhancement of expression of NFκBp65, a cellular transcription factor” value in the assay on NFκBp65 is recorded as “confirmed”.
On to GQKDLLFKDSAI [HuPep4], for which the “inducing ability for production of IL-8” value in the assay with IL-8 is “confirmed”. Besides, the “production of IL-6, one inflammatory cytokine” value with IL-6 was “could be confirmed”. Further, in the assay with MCP-1, the “inducing ability for production of MCP-1” value was “confirmed”. Further, the “enhancement of expression of NFκBp65, a cellular transcription factor” value with NFκBp65 is on record as “confirmed”.
